Bridge positions count the residues as written; N and C are the ends. Peptide text beside a SMILES is read from it.
Experiments:
[1] = system: HeLa cells; experiment: Cytotoxicity against HeLa cells, resazurin assay; format: cell-based; conditions: 5000 cells/well, 24-h incubation with peptide, then resazurin 18 h, triplicate, mean ± SEM
Procedure: To further confirm the activity of these mutants, their cytotoxicity against HeLa cancer cells was evaluated along with wild-type bracelet cyclotides. […] Of the four [I11G] mutants, the hyen D analogue had the highest activity, possibly because hyen D has one more hydrophobic residue in loop 3 compared to the other three cyclotides, which may contribute to its higher lipid-binding capacity (P/L max = 0.37) and help offset the hydrophobicity loss caused by the [I11G] mutation.
The cytotoxicity of the peptides was evaluated using the resazurin assay, as described previously. HeLa cells were seeded at 5000 cells/well in a 96-well, flat-bottomed plate one day prior to the experiments. Peptide solutions were prepared in water and incubated with HeLa cells at concentrations ranging from 16 to 0.125 μM or 8 to 0.063 μM in triplicate (final concentrations). Water and 1% Triton X-100 (TX) were applied as negative and positive control, respectively. After 24-h incubation, 10 μL of resazurin (0.05%, w/v) was added and incubated with cells for another 18 h. The absorbance was measured at 540 and 620 nm on a microplate reader (Infinite M1000 Pro microplate reader, Tecan, Switzerland). The percentage of cell death was quantified by calculating the absorbance ratio, R (R = absorbance at 620/540), and applying the following equation: % Cell death = (Rsample − RH2O)/(RTX − RH2O) × 100. Data were analyzed with GraphPad Prism software (version 8.3.1) using Specific binding with Hill slope algorithm.

[2] = system: POPC/POPE (80:20) model membrane; experiment: Membrane binding to POPC/POPE lipid bilayers by surface plasmon resonance (SPR); conditions: for P/L Max, peptide-to-lipid maximum binding value / Kd: BIAcore T200, L1 chip, POPC/POPE (80:20) bilayer, 10 mM HEPES, 150 mM NaCl; for P/L Max, peptide-to-lipid maximum binding value: pH 7.4, injection 180 s, dissociation 600 s, nonlinear regression; for Kd: pH 7.4, nonlinear regression, read-out: KD, peptide concentration required to achieve half-maximum binding at equilibrium
Source text: Cyclotides are reported to exert their biological activities via membrane binding, particularly by selective binding to lipids containing phosphatidylethanolamine (PE) headgroups. Therefore, to evaluate the functional impact of the single mutation on bracelet cyclotides, the membrane-binding ability of these variants towards PE-containing lipid bilayers was examined using surface plasmon resonance (SPR). The model membrane comprising 80% 1-palmitoyloleoyl-phosphatidylcholine (POPC) and 20% 1-palmitoyloleoyl-phosphatidylethanolamine (POPE) was used. Binding affinity was evaluated by the peptide-to-lipid maximum binding value (P/L max, mol/mol) and the peptide concentration required to achieve half-maximum binding at equilibrium (KD value, μM). […] The negative effect of the [I11G] bracelet cyclotide mutation on lipid binding was expected, as the mutation reduces surface hydrophobicity, a previously reported determinant of membrane binding. The SPR dose-response curves and sensorgrams are shown in Figure S4 in Supplementary Material.
The binding affinity of bracelet cyclotides and their variants toward lipid bilayers was studied using SPR, as described previously. Two synthetic lipids, 1-palmitoyl-2-oleoyl-glycero-3-phosphocholine (POPC) and 1-palmitoyl-2-oleoyl-sn-glycero-3-phosphoethanolamine (POPE), were purchased from Avanti Polar Lipids (USA). Briefly, homogenous, small, unilamellar vesicles composed of POPC/POPE (80:20, mol/mol) were obtained by extruding the vesicle suspension through a 50-nm pore size polycarbonate membrane. L1 sensor chips and BIAcore T200 instrument were used (Cytiva, Marlborough, MA, USA). After the lipid was loaded and formed a bilayer membrane on the L1 chip, peptide solutions were injected over the lipid surface for 180 s and the dissociation was monitored for 600 s. Peptides were tested at concentrations ranging from 4–32 μM. Peptide-to-lipid molar ratio and KD values were calculated by nonlinear regression using GraphPad Prism software (version 8.3.1). Peptide solutions and lipid vesicles were prepared in HEPES buffer (10 mM HEPES, 150 mM NaCl, pH 7.4, filtered) for SPR studies.

| Compound | CC50 on HeLa (half maximum cytotoxic concentration) [1] [µM] | P/L Max, peptide-to-lipid maximum binding value [2] | Kd [2] [µM] | Fold weaker affinity to membranes compared to parent peptide ([2]; POPC/POPE (80:20), compared with hyen D) [fold] |
| --- | --- | --- | --- | --- |
| CC[C@H](C)[C@@H]1NC(=O)[C@H](C)NC(=O)[C@H](CO)NC(=O)[C@H](CO)NC(=O)[C@H]([C@@H](C)CC)NC(=O)[C@@H]2CSSC[C@@H]3NC(=O)[C@H](C(C)C)NC(=O)[C@H](CCCCN)NC(=O)[C@H](CO)NC(=O)[C@H](CCCCN)NC(=O)[C@@H]4CSSC[C@H](NC(=O)[C@H](CO)NC(=O)[C@H](CCC(=O)O)NC(=O)CNC(=O)[C@H](CSSC[C@H](NC(=O)CNC1=O)C(=O)N[C@@H](CO)C(=O)N4)NC(=O)[C@@H]1CCCN1C(=O)[C@H]([C@@H](C)CC)NC(=O)CNC(=O)[C@H](CC(N)=O)NC(=O)[C@H](CCCNC(=N)N)NC(=O)[C@H](Cc1ccc(O)cc1)NC3=O)C(=O)N[C@@H](C(C)C)C(=O)N[C@@H](Cc1c[nH]c3ccccc13)C(=O)NCC(=O)N1CCC[C@H]1C(=O)N2 [[I11G]cyO2] (cyclo(AIGCSCKSKVCYRNGIPCGESCVWGPCISS); disulfide 4-18, 6-22, 11-27) | >64 | n.b. ^3 | – | – |
| CC[C@H](C)[C@@H]1NC(=O)CNC(=O)[C@H](CC(N)=O)NC(=O)[C@H](CCCNC(=N)N)NC(=O)[C@H](Cc2ccc(O)cc2)NC(=O)[C@@H]2CSSC[C@@H]3NC(=O)[C@@H]4CCCN4C(=O)CNC(=O)[C@H](Cc4c[nH]c5ccccc45)NC(=O)[C@H](C(C)C)NC(=O)[C@@H]4CSSC[C@H](NC(=O)[C@H](CO)NC(=O)[C@H](CSSC[C@H](NC(=O)[C@@H]5CCCN5C1=O)C(=O)NCC(=O)N[C@@H](CCC(=O)O)C(=O)N[C@@H](CO)C(=O)N4)NC(=O)CNC(=O)[C@H](C(C)C)NC(=O)[C@H](C)NC(=O)[C@H](CO)NC(=O)[C@H]([C@@H](C)O)NC(=O)[C@H](CC(C)C)NC3=O)C(=O)N[C@@H](CCCCN)C(=O)N[C@@H](CO)C(=O)N[C@@H](CCCCN)C(=O)N[C@@H](C(C)C)C(=O)N2 [[I11G]cyO9] (cyclo(AVGCSCKSKVCYRNGIPCGESCVWGPCLTS); disulfide 4-18, 6-22, 11-27) | >64 | n.b. | – | – |
| CC[C@H](C)[C@@H]1NC(=O)[C@H](C)NC(=O)[C@H](C)NC(=O)[C@H]([C@@H](C)O)NC(=O)[C@H](Cc2ccccc2)NC(=O)[C@@H]2CSSC[C@@H]3NC(=O)[C@H](C(C)C)NC(=O)[C@H](CCCCN)NC(=O)[C@H](CO)NC(=O)[C@H](CCCCN)NC(=O)[C@@H]4CSSC[C@H](NC(=O)[C@H](CO)NC(=O)[C@H](CCC(=O)O)NC(=O)CNC(=O)[C@H](CSSC[C@H](NC(=O)CNC1=O)C(=O)N[C@@H](CO)C(=O)N4)NC(=O)[C@@H]1CCCN1C(=O)[C@H](Cc1ccccc1)NC(=O)CNC(=O)[C@H](CC(N)=O)NC(=O)[C@H](CCCCN)NC(=O)[C@H](Cc1ccc(O)cc1)NC3=O)C(=O)N[C@@H](C(C)C)C(=O)N[C@@H](Cc1ccc(O)cc1)C(=O)NCC(=O)N1CCC[C@H]1C(=O)N2 [[I11G]hD] (cyclo(AAIGCSCKSKVCYKNGFPCGESCVYGPCFT); disulfide 5-19, 7-23, 12-28) | 50.2 ± 4.61 | 0.24 ± 0.01 mol/mol | 81 ± 7.91 | 18 |
| CC[C@H](C)[C@@H]1NC(=O)[C@@H]2CSSC[C@@H]3NC(=O)[C@H](C(C)C)NC(=O)[C@H](CCCCN)NC(=O)[C@H](CC(=O)O)NC(=O)[C@H]([C@@H](C)O)NC(=O)[C@@H]4CSSC[C@H](NC(=O)[C@H](CO)NC(=O)[C@H](CCC(=O)O)NC(=O)CNC(=O)[C@H](CSSC[C@H](NC(=O)CNC(=O)[C@H]([C@@H](C)CC)NC(=O)[C@H](C(C)C)NC(=O)CNC(=O)[C@H](CO)NC1=O)C(=O)N[C@@H](CO)C(=O)N4)NC(=O)[C@@H]1CCCN1C(=O)[C@H]([C@@H](C)O)NC(=O)CNC(=O)[C@H](CC(N)=O)NC(=O)[C@H](CC(C)C)NC(=O)[C@H](Cc1ccc(O)cc1)NC3=O)C(=O)N[C@@H](C(C)C)C(=O)N[C@@H](Cc1ccc(O)cc1)C(=O)NCC(=O)N1CCC[C@H]1C(=O)N2 [[I11G]kB5] (cyclo(CGESCVYGPCISGVIGCSCTDKVCYLNGTP); disulfide 1-17, 5-19, 10-24) | >64 | n.b. | – | – |
| CC[C@H](C)[C@@H]1NC(=O)[C@H](C)NC(=O)[C@H](CO)NC(=O)[C@H](CO)NC(=O)[C@H]([C@@H](C)CC)NC(=O)[C@@H]2CSSC[C@@H]3NC(=O)[C@H](C(C)C)NC(=O)[C@H](CCCCN)NC(=O)[C@H](CO)NC(=O)[C@H](CCCCN)NC(=O)[C@@H]4CSSC[C@H](NC(=O)[C@H](CO)NC(=O)[C@H](CCC(=O)O)NC(=O)CNC(=O)[C@H](CSSC[C@H](NC(=O)CNC1=O)C(=O)N[C@@H](CO)C(=O)N4)NC(=O)[C@@H]1CCCN1C(=O)[C@H]([C@@H](C)CC)NC(=O)CNC(=O)[C@H](CC(N)=O)NC(=O)[C@H](CCCNC(=N)N)NC(=O)[C@H](Cc1ccc(O)cc1)NC3=O)C(=O)N[C@@H](C(C)C)C(=O)N[C@@H](Cc1c[nH]c3ccccc13)C(=O)N[C@@H](CC(C)C)C(=O)N1CCC[C@H]1C(=O)N2 [[I11L]cyO2] (cyclo(AIGCSCKSKVCYRNGIPCGESCVWLPCISS); disulfide 4-18, 6-22, 11-27) | 0.95 ± 0.08 | 0.31 ± 0.01 mol/mol | 4.71 ± 0.17 | – |
| CC[C@H](C)[C@@H]1NC(=O)CNC(=O)[C@H](CC(N)=O)NC(=O)[C@H](CCCNC(=N)N)NC(=O)[C@H](Cc2ccc(O)cc2)NC(=O)[C@@H]2CSSC[C@@H]3NC(=O)[C@@H]4CCCN4C(=O)[C@H](CC(C)C)NC(=O)[C@H](Cc4c[nH]c5ccccc45)NC(=O)[C@H](C(C)C)NC(=O)[C@@H]4CSSC[C@H](NC(=O)[C@H](CO)NC(=O)[C@H](CSSC[C@H](NC(=O)[C@@H]5CCCN5C1=O)C(=O)NCC(=O)N[C@@H](CCC(=O)O)C(=O)N[C@@H](CO)C(=O)N4)NC(=O)CNC(=O)[C@H](C(C)C)NC(=O)[C@H](C)NC(=O)[C@H](CO)NC(=O)[C@H]([C@@H](C)O)NC(=O)[C@H](CC(C)C)NC3=O)C(=O)N[C@@H](CCCCN)C(=O)N[C@@H](CO)C(=O)N[C@@H](CCCCN)C(=O)N[C@@H](C(C)C)C(=O)N2 [[I11L]cyO9] (cyclo(AVGCSCKSKVCYRNGIPCGESCVWLPCLTS); disulfide 4-18, 6-22, 11-27) | 1.06 ± 0.03 | 0.31 ± 0.00 mol/mol | 4.26 ± 0.06 | – |
| CC[C@H](C)[C@@H]1NC(=O)[C@H](C)NC(=O)[C@H](C)NC(=O)[C@H]([C@@H](C)O)NC(=O)[C@H](Cc2ccccc2)NC(=O)[C@@H]2CSSC[C@@H]3NC(=O)[C@H](C(C)C)NC(=O)[C@H](CCCCN)NC(=O)[C@H](CO)NC(=O)[C@H](CCCCN)NC(=O)[C@@H]4CSSC[C@H](NC(=O)[C@H](CO)NC(=O)[C@H](CCC(=O)O)NC(=O)CNC(=O)[C@H](CSSC[C@H](NC(=O)CNC1=O)C(=O)N[C@@H](CO)C(=O)N4)NC(=O)[C@@H]1CCCN1C(=O)[C@H](Cc1ccccc1)NC(=O)CNC(=O)[C@H](CC(N)=O)NC(=O)[C@H](CCCCN)NC(=O)[C@H](Cc1ccc(O)cc1)NC3=O)C(=O)N[C@@H](C(C)C)C(=O)N[C@@H](Cc1ccc(O)cc1)C(=O)N[C@@H](CC(C)C)C(=O)N1CCC[C@H]1C(=O)N2 [[I11L]hD] (cyclo(AAIGCSCKSKVCYKNGFPCGESCVYLPCFT); disulfide 5-19, 7-23, 12-28) | 0.70 ± 0.02 | 0.36 ± 0.01 mol/mol | 4.39 ± 0.5 | – |
